According to ChEMBL document CHEMBL4041467, “Synthesis of novel 15-membered 8a-azahomoerythromycin A acylides: Consequences of structural modification at the C-3 and C-6 position on antibacterial activity” (Eur J Med Chem, 2017):
In brackets after ≈: the same amount, converted by molar mass.

What was measured:
Streptococcus pyogenes [1] = assay: Antibacterial activity against erythromycin susceptible Streptococcus pyogenes by agar microdilution method; assay type: functional
Streptococcus pyogenes [2] = assay: Antibacterial activity against constitutively macrolide/lincosamide/streptogramin B-resistant Streptococcus pyogenes by agar microdilution method; assay type: functional
Haemophilus influenzae = assay: Antibacterial activity against Haemophilus influenzae by agar microdilution method; assay type: functional
Streptococcus pyogenes [3] = assay: Antibacterial activity against Mef-mediated macrolide efflux resistant Streptococcus pyogenes by agar microdilution method; assay type: functional
Staphylococcus aureus [4] = assay: Antibacterial activity against constitutively macrolide/lincosamide/streptogramin B-resistant Staphylococcus aureus by agar microdilution method; assay type: functional
Streptococcus pneumoniae [5] = assay: Antibacterial activity against constitutively macrolide/lincosamide/streptogramin B-resistant Streptococcus pneumoniae by agar microdilution method; assay type: functional
Staphylococcus aureus [6] = assay: Antibacterial activity against inducibly macrolide/lincosamide/streptogramin B-resistant Staphylococcus aureus by agar microdilution method; assay type: functional
Streptococcus pneumoniae [7] = assay: Antibacterial activity against erythromycin susceptible Streptococcus pneumoniae by agar microdilution method; assay type: functional
Streptococcus pneumoniae [8] = assay: Antibacterial activity against Mef-mediated macrolide efflux resistant Streptococcus pneumoniae by agar microdilution method; assay type: functional
Staphylococcus aureus [9] = assay: Antibacterial activity against erythromycin susceptible Staphylococcus aureus by agar microdilution method; assay type: functional
Plasma = assay: Stability in rat plasma at 1 uM up to 120 mins by LC-MS/MS analysis; assay type: ADME, cell-free; conditions: 2 h

| Compound | MIC (Streptococcus pyogenes [1]) [µg/mL] | MIC (Streptococcus pyogenes [2]) [µg/mL] | MIC (Haemophilus influenzae) [µg/mL] | MIC (Streptococcus pyogenes [3]) [µg/mL] | MIC (Staphylococcus aureus [4]) [µg/mL] | MIC (Streptococcus pneumoniae [5]) [µg/mL] | MIC (Staphylococcus aureus [6]) [µg/mL] | MIC (Streptococcus pneumoniae [7]) [µg/mL] | MIC (Streptococcus pneumoniae [8]) [µg/mL] | MIC (Staphylococcus aureus [9]) [µg/mL] | Stability (Plasma) |
| --- | --- | --- | --- | --- | --- | --- | --- | --- | --- | --- | --- |
| C=CCO[C@]1(C)C[C@@H](C)NC(=O)[C@H](C)[C@@H](O)[C@](C)(O)[C@@H](CC)OC(=O)[C@H](C)[C@@H](OC(=O)CCNC(C)C(=O)Nc2ccc3ncccc3c2)[C@H](C)[C@H]1O[C@@H]1O[C@H](C)C[C@H](N(C)C)[C@H]1O (stereo partly specified) | ≤ 0.125 | 4 (≈ 4.44 µM) | 4 (≈ 4.44 µM) | 0.25 (≈ 0.278 µM) | > 64 | 8 (≈ 8.89 µM) | 0.5 (≈ 0.555 µM) | ≤ 0.125 | 0.25 (≈ 0.278 µM) | 0.5 (≈ 0.555 µM) |  |
| COC(=O)c1cn(C2CC2)c2cc(N3CCNCC3)c(F)cc2c1=O | > 64 | > 64 | 16 (≈ 46.3 µM) | > 64 | > 64 | > 64 | > 64 | > 64 | > 64 | > 64 |  |
| C=CCO[C@]1(C)C[C@@H](C)NC(=O)[C@H](C)[C@@H](O)[C@](C)(O)[C@@H](CC)OC(=O)[C@H](C)[C@@H](OC(=O)CCNC(C)Cc2ccc(OC)cc2)[C@H](C)[C@H]1O[C@@H]1O[C@H](C)C[C@H](N(C)C)[C@H]1O (stereo partly specified) | 0.25 (≈ 0.294 µM) | > 64 | 16 (≈ 18.8 µM) | 4 (≈ 4.71 µM) | > 64 | > 64 | 2 (≈ 2.35 µM) | 0.5 (≈ 0.588 µM) | 2 (≈ 2.35 µM) | 2 (≈ 2.35 µM) |  |
| CC[C@H]1OC(=O)[C@H](C)[C@@H](OC(=O)CCNCCNc2cc3c(=O)c(C(=O)O)cn(C4CC4)c3cc2Cl)[C@H](C)[C@@H](O[C@@H]2O[C@H](C)C[C@H](N(C)C)[C@H]2O)[C@](C)(OC/C=C/c2cccc3ncccc23)C[C@@H](C)NC(=O)[C@H](C)[C@@H](O)[C@]1(C)O | 1 (≈ 0.882 µM) | 32 (≈ 28.2 µM) | 8 (≈ 7.06 µM) | 4 (≈ 3.53 µM) | > 64 | 8 (≈ 7.06 µM) | 2 (≈ 1.76 µM) | 0.5 (≈ 0.441 µM) | 4 (≈ 3.53 µM) | 1 (≈ 0.882 µM) |  |
| C=CCO[C@]1(C)C[C@@H](C)NC(=O)[C@H](C)[C@@H](O)[C@](C)(O)[C@@H](CC)OC(=O)[C@H](C)[C@@H](OC(=O)CCNCCNc2cc3c(cc2F)c(=O)c(C(=O)O)cn3C2CC2)[C@H](C)[C@H]1O[C@@H]1O[C@H](C)C[C@H](N(C)C)[C@H]1O | 0.25 (≈ 0.252 µM) | 16 (≈ 16.2 µM) | 2 (≈ 2.02 µM) | 0.5 (≈ 0.505 µM) | > 64 | 2 (≈ 2.02 µM) | 0.25 (≈ 0.252 µM) | 0.25 (≈ 0.252 µM) | 0.5 (≈ 0.505 µM) | 0.25 (≈ 0.252 µM) |  |
| C=CCO[C@]1(C)C[C@@H](C)NC(=O)[C@H](C)[C@@H](O)[C@](C)(O)[C@@H](CC)OC(=O)[C@H](C)[C@@H](OC(=O)CCN2CCN(c3cc4c(cc3F)c(=O)c(C(=O)O)cn4C3CC3)CC2)[C@H](C)[C@H]1O[C@@H]1O[C@H](C)C[C@H](N(C)C)[C@H]1O | 0.5 (≈ 0.492 µM) | 8 (≈ 7.87 µM) | 4 (≈ 3.94 µM) | 0.5 (≈ 0.492 µM) | > 64 | 4 (≈ 3.94 µM) | 1 (≈ 0.984 µM) | 0.5 (≈ 0.492 µM) | 1 (≈ 0.984 µM) | 0.5 (≈ 0.492 µM) | Stable |
| C=CCO[C@]1(C)C[C@@H](C)NC(=O)[C@H](C)[C@@H](O)[C@](C)(O)[C@@H](CC)OC(=O)[C@H](C)[C@@H](OC(=O)CCN2CCN(c3ccc(F)cc3)CC2)[C@H](C)[C@H]1O[C@@H]1O[C@H](C)C[C@H](N(C)C)[C@H]1O | 1 (≈ 1.16 µM) | > 64 | 16 (≈ 18.5 µM) | 2 (≈ 2.31 µM) | > 64 | > 64 | 4 (≈ 4.62 µM) | 0.25 (≈ 0.289 µM) | 2 (≈ 2.31 µM) | 2 (≈ 2.31 µM) |  |
| O=C(O)c1cn(C2CC2)c2cc(Cl)c(N3CCNCC3)cc2c1=O | > 64 | > 64 | > 64 | > 64 | > 64 | > 64 | > 64 | > 64 | > 64 | > 64 |  |
